Assay results as given in the kinase profiling compilation of Christmann-Franck et al. (2016).

Columns and labels:
Test in all cases: radiometric filter-binding kinase assay, Kinase HotSpot
Details in all cases: compound 0.5 µM; ATP 10 µM
[1] = molecular target: RET (human) (UniProt P07949)
[2] = molecular target: CSK (human) (UniProt P41240)
[3] = molecular target: TGFBR2 (human) (UniProt P37173)
[4] = molecular target: MAP3K8 (human) (UniProt P41279)
[5] = molecular target: STK3 (human) (UniProt Q13188)
[6] = molecular target: PHKG1 (human) (UniProt Q16816)
[7] = molecular target: INSR (human) (UniProt P06213)
[8] = molecular target: FLT1 (human) (UniProt P17948)
[9] = molecular target: RPS6KA1 KD1 KD2 (human) (UniProt Q15418)
[10] = molecular target: CAMK1 (human) (UniProt Q14012)
[11] = molecular target: DAPK1 (human) (UniProt P53355)
[12] = molecular target: VRK1 (human) (UniProt Q99986)
VRK1 (human), sequence (Q99986 whole entry, looked up): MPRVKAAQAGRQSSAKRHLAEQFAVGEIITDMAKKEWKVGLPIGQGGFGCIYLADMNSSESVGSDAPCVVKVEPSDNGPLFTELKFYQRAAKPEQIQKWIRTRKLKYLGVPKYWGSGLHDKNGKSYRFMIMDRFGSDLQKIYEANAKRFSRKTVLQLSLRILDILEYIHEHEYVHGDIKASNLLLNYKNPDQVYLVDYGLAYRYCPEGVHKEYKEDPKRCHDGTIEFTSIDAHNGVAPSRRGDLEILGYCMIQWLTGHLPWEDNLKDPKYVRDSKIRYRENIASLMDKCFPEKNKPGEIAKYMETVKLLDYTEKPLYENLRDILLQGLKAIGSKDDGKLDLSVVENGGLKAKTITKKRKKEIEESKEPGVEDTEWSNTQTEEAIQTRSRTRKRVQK

[13] = molecular target: CDC42BPA (human) (UniProt Q5VT25)
[14] = molecular target: KIT (human) (UniProt P10721)
[15] = molecular target: ULK2 (human) (UniProt Q8IYT8)
[16] = molecular target: LCK (human) (UniProt P06239)
[17] = molecular target: NEK6 (human) (UniProt Q9HC98)
[18] = molecular target: ACVR1 (human) (UniProt Q04771)
[19] = molecular target: RPS6KA2 KD1 KD2 (human) (UniProt Q15349)
[20] = molecular target: MAP4K5 (human) (UniProt Q9Y4K4)
[21] = molecular target: RPS6KB1 (human) (UniProt P23443)
[22] = molecular target: CDK3 CCNE1 (human) (UniProt Q00526+P24864)
[23] = molecular target: TAOK3 (human) (UniProt Q9H2K8)
TAOK3 (human), sequence (Q9H2K8 whole entry, looked up): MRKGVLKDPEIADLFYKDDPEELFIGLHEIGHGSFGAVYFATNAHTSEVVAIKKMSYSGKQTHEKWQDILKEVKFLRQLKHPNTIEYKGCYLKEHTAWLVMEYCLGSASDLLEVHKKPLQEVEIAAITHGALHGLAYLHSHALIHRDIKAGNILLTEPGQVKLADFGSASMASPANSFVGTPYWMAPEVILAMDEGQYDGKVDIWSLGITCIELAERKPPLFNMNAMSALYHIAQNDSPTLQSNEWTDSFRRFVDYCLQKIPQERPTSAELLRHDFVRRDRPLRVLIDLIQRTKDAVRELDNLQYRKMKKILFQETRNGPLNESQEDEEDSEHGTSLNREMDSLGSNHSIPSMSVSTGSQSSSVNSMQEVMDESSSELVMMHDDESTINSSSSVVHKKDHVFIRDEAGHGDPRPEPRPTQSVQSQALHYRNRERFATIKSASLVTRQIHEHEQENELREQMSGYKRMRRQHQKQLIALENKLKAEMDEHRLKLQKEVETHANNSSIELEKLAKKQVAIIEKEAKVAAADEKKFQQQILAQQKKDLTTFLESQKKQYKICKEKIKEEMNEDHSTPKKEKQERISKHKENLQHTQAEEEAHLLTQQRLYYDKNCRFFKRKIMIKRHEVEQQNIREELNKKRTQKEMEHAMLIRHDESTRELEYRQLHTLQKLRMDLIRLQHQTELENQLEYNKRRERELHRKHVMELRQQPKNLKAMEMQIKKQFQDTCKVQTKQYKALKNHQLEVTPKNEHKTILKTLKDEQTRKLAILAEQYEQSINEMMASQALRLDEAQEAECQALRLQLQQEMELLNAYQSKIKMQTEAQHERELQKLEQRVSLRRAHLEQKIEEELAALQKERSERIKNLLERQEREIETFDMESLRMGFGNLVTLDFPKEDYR

[24] = molecular target: PKN1 (human) (UniProt Q16512)
PKN1 (human), sequence (Q16512 whole entry, looked up): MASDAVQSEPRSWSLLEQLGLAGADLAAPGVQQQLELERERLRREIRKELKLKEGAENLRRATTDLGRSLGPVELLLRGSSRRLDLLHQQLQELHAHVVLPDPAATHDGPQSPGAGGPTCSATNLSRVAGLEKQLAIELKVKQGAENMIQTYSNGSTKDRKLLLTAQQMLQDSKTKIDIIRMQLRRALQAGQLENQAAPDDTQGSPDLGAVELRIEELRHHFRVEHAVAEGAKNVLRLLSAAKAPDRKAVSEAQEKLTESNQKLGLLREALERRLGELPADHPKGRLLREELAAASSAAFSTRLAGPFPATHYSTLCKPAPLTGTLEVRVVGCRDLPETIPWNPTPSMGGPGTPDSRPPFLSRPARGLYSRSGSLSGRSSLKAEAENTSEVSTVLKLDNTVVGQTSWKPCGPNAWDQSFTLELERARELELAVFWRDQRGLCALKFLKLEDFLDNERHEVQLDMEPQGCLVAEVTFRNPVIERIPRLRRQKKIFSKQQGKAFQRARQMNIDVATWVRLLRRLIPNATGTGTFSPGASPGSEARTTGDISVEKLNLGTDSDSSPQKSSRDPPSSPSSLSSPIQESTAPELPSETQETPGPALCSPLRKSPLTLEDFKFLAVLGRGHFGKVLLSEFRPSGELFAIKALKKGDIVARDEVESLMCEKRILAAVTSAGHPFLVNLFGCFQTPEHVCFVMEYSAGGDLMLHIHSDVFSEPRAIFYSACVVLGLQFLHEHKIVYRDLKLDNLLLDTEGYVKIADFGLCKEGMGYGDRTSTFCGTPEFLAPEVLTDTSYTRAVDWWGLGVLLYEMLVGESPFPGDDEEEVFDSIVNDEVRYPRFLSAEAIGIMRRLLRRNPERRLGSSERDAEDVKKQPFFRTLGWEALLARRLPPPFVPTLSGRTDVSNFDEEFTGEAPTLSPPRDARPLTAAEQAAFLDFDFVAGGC

[25] = molecular target: SRPK1 (human) (UniProt Q96SB4)
[26] = molecular target: DYRK1B (human) (UniProt Q9Y463)
[27] = molecular target: PAK1 (human) (UniProt Q13153)
[28] = molecular target: AKT2 (human) (UniProt P31751)
AKT2 (human), sequence (P31751 whole entry, looked up): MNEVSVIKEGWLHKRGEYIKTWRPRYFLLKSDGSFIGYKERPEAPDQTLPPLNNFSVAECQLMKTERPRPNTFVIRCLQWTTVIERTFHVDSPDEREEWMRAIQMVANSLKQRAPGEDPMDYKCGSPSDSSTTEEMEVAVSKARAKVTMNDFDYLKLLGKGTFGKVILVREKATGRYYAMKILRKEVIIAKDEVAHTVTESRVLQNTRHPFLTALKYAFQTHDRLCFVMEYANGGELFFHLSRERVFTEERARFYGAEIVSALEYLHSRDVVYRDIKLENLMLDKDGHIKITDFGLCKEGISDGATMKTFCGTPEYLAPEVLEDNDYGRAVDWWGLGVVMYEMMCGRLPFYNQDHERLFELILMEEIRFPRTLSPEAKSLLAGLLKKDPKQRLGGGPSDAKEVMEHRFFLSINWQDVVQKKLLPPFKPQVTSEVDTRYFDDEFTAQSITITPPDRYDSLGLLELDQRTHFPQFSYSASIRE

[29] = molecular target: SRC (human) (UniProt P12931)
[30] = molecular target: HIPK3 (human) (UniProt Q9H422)
[31] = molecular target: PAK2 (human) (UniProt Q13177)
[32] = molecular target: EPHA8 (human) (UniProt P29322)
[33] = molecular target: MAPK11 (human) (UniProt Q15759)
[34] = molecular target: FGFR4 (human) (UniProt P22455)
[35] = molecular target: MAPKAPK3 (human) (UniProt Q16644)
[36] = molecular target: PRKG2 (human) (UniProt Q13237)
[37] = molecular target: NEK9 (human) (UniProt Q8TD19)
[38] = molecular target: MUSK (human) (UniProt O15146)
[39] = molecular target: IKBKB (human) (UniProt O14920)
[40] = molecular target: TBK1 (human) (UniProt Q9UHD2)
[41] = molecular target: CHUK (human) (UniProt O15111)
[42] = molecular target: ABL2 (human) (UniProt P42684)
ABL2 (human), sequence (P42684 whole entry, looked up): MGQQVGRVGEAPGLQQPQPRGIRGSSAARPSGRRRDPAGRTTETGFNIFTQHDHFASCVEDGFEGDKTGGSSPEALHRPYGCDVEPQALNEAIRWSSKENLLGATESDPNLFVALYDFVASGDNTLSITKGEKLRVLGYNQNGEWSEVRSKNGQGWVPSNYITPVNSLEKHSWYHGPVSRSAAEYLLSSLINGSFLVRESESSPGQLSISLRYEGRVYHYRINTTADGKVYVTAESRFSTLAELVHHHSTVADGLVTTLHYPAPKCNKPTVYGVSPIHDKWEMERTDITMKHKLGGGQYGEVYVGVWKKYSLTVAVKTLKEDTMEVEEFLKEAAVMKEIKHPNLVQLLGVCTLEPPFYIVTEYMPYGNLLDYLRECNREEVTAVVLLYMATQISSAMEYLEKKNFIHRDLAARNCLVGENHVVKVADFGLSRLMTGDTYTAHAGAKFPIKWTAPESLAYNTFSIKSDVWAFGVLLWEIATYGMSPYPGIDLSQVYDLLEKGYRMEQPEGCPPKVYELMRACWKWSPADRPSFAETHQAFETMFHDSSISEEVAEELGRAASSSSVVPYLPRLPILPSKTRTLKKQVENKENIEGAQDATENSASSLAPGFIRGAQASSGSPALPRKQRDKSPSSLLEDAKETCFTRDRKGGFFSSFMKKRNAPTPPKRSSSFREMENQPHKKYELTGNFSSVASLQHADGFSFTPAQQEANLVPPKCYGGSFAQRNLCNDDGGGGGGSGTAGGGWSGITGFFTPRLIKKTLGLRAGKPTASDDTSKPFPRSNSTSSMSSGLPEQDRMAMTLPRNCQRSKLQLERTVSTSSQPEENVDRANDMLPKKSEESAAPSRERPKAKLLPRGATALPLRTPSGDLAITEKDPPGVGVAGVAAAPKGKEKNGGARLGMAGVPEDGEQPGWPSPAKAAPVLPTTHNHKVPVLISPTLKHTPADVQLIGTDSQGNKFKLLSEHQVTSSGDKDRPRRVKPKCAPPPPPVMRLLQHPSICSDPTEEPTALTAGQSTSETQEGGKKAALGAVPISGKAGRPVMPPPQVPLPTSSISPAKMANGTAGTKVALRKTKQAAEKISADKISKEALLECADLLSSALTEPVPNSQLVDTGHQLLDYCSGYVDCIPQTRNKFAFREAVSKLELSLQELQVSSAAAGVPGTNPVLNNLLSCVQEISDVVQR

RET (human), sequence (P07949 whole entry, looked up): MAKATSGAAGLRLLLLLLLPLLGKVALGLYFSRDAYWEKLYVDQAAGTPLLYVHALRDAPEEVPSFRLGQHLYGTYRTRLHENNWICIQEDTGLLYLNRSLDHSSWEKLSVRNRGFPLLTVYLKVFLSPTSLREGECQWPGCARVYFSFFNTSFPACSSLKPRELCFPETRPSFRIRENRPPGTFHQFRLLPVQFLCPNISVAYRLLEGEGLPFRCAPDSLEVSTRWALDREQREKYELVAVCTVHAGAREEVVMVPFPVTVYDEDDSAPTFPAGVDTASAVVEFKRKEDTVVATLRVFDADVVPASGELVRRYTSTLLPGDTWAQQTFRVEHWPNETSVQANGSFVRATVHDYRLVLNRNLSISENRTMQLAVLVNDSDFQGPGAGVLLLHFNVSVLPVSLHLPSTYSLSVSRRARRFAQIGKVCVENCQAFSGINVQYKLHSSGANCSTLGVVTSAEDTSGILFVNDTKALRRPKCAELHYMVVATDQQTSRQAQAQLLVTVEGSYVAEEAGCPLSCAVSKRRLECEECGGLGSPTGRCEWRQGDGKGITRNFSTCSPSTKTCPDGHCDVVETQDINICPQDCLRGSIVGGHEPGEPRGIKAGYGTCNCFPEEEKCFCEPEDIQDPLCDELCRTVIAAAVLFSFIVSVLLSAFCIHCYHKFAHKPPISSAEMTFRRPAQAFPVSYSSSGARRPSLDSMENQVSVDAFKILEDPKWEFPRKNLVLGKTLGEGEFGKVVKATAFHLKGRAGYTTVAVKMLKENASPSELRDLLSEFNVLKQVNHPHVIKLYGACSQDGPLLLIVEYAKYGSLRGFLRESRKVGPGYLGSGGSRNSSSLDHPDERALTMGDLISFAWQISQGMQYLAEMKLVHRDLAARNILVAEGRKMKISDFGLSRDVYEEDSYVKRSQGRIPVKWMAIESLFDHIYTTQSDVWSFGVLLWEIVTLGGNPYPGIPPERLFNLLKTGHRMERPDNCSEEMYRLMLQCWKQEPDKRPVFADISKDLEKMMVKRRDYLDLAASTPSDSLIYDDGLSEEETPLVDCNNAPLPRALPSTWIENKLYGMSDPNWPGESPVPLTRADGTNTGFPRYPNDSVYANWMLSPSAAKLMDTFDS

Molecule `O=C(O)/C=C/c1cc(Br)c(Br)c(Br)c1Br` has a residual activity [1] of 76.4%, a residual activity [2] of 103% and a residual activity [3] of 85.7%. It also gave a residual activity [4] of 83%, a residual activity [5] of 91.4% and a residual activity [6] of 87.6%. It also gave a residual activity [7] of 98.6%, a residual activity [8] of 87.5% and a residual activity [9] of 90.5%. The residual activity [10] was 105%, the residual activity [11] was 73.7% and the residual activity [12] was 89.8%. For the same molecule, the residual activity [13] was 98.5%, the residual activity [14] was 89.2% and the residual activity [15] was 80.3%. It also gave a residual activity [16] of 99.3%, a residual activity [17] of 102% and a residual activity [18] of 92.1%. For the same molecule, the residual activity [19] was 75.8%, the residual activity [20] was 80.3% and the residual activity [21] was 91.4%. It also gave a residual activity [22] of 98.3%, a residual activity [23] of 85.3% and a residual activity [24] of 85.5%. The residual activity [25] was 79.3%, the residual activity [26] was 79.1% and the residual activity [27] was 105%. The residual activity [28] was 97.5%, the residual activity [29] was 88.8% and the residual activity [30] was 96.7%. The residual activity [31] was 83.2%, the residual activity [32] was 99.1% and the residual activity [33] was 92.7%. For the same molecule, the residual activity [34] was 88.3%, the residual activity [35] was 86.3% and the residual activity [36] was 80.3%. It also gave a residual activity [37] of 94.7%, a residual activity [38] of 53.6% and a residual activity [39] of 95.7%. The residual activity [40] was 91.4%, the residual activity [41] was 89.5% and the residual activity [42] was 88.7%.
`Oc1ccc(Nc2nc(-c3ccc(Cl)cc3)cs2)cc1` was tested, and the residual activity [1] was 99%, the residual activity [2] was 101% and the residual activity [3] was 112%. It also gave a residual activity [4] of 94.9%, a residual activity [5] of 114% and a residual activity [6] of 96.5%. The residual activity [7] was 88.9%, the residual activity [8] was 82.3% and the residual activity [9] was 97.7%. It also gave a residual activity [10] of 111%, a residual activity [11] of 101% and a residual activity [12] of 99.8%. It also gave a residual activity [13] of 87.1%, a residual activity [14] of 92% and a residual activity [15] of 101%. It also gave a residual activity [16] of 99.8%, a residual activity [17] of 95.2% and a residual activity [18] of 94.9%. It also gave a residual activity [19] of 101%, a residual activity [20] of 110% and a residual activity [21] of 104%. The residual activity [22] was 99%, the residual activity [23] was 101% and the residual activity [24] was 99.5%. For the same molecule, the residual activity [25] was 103%, the residual activity [26] was 106% and the residual activity [27] was 99.4%. The residual activity [28] was 96.4%, the residual activity [29] was 95.1% and the residual activity [30] was 109%. The residual activity [31] was 87%, the residual activity [32] was 93.4% and the residual activity [33] was 105%. For the same molecule, the residual activity [34] was 71.6%, the residual activity [35] was 94.1% and the residual activity [36] was 92.9%. The residual activity [37] was 90.6%, the residual activity [38] was 99.5% and the residual activity [39] was 104%. It also gave a residual activity [40] of 95.2%, a residual activity [41] of 104% and a residual activity [42] of 93.4%.
In the case of `COc1cc2ncc(-c3ccccc3)nc2cc1OC`, the residual activity [1] is reported as 84.4%, the residual activity [2] is reported as 107% and the residual activity [3] is reported as 75%. The residual activity [4] was 108%, the residual activity [5] was 95.7% and the residual activity [6] was 92.4%. The residual activity [7] was 89.1%, the residual activity [8] was 85% and the residual activity [9] was 88.4%. For the same molecule, the residual activity [10] was 90.4%, the residual activity [11] was 99.7% and the residual activity [12] was 106%. It also gave a residual activity [13] of 85.4%, a residual activity [14] of 67.3% and a residual activity [15] of 113%. For the same molecule, the residual activity [16] was 93.5%, the residual activity [17] was 93.8% and the residual activity [18] was 99.3%. The residual activity [19] was 85.4%, the residual activity [20] was 99.8% and the residual activity [21] was 89%. The residual activity [22] was 83.8%, the residual activity [23] was 88.9% and the residual activity [24] was 104%. It also gave a residual activity [25] of 105%, a residual activity [26] of 110% and a residual activity [27] of 91.3%. The residual activity [28] was 86.7%, the residual activity [29] was 96.1% and the residual activity [30] was 97.7%. The residual activity [31] was 85.6%, the residual activity [32] was 93.1% and the residual activity [33] was 95.7%. It also gave a residual activity [34] of 78.7%, a residual activity [35] of 86.7% and a residual activity [36] of 83.6%. For the same molecule, the residual activity [37] was 93.5%, the residual activity [38] was 95.9% and the residual activity [39] was 101%. For the same molecule, the residual activity [40] was 87.2%, the residual activity [41] was 113% and the residual activity [42] was 94%.
